Reference: patent US20150307460A1, “Substituted Triazoles and Imidazoles and Their Use as Fungicides” (BASF SE, priority 2012, published 2015)

What was measured:
Botrytis cinerea = assay: Microtiterplate test: activity against the grey mold Botrytis cinerea (Botrci), also comparison test CM1; format: cell-based; settings: 7 days after inoculation, control = 100%
Septoria tritici = assay: Microtest: activity against leaf blotch on wheat caused by Septoria tritici (Septtr), also comparison test CM3; format: cell-based; settings: 7 days after inoculation, control = 100%
Phytophthora infestans = format: cell-based; settings: 7 days after inoculation, control = 100%
Puccinia recondita = assay: Green house CG1: preventative control of brown rust on wheat caused by Puccinia recondita (Puccrt P1); format: in vivo; settings: 150 ppm spray, wheat seedlings, % diseased leaf area, untreated control 90
Experimental: The spray solutions were prepared in several steps: The stock solution were prepared: a mixture of acetone and/or dimethylsulfoxide and the wetting agent/emulsifier Wettol, which is based on ethoxylated alkylphenoles, in a relation (volume) solvent-emulsifier of 99 to 1 was added to 25 mg of the compound to give a total of 5 ml. Water was then added to total volume of 100 ml. This stock solution was diluted with the described solvent-emulsifier-water mixture to the given concentration. CG1 Preventative Control of Brown Rust on Wheat Caused by Puccinia recondita (Puccrt P1) The first two developed leaves of pot-grown wheat seedling were sprayed to run-off with an aqueous suspension, containing the concentration of active ingredient or their mixture as described below. The next day the plants were inoculated with spores of Puccinia recondita. […] The extent of fungal attack on the leaves was visually assessed as % diseased leaf area.

OC1(c2cccc(-c3ccc(Cl)cc3)c2)CCCCC1n1cncn1 (stereo not drawn) [Compound I-19]
CM1 Growth (%) at 8 ppm Botrci (Botrytis cinerea): 0% | CM3 Growth (%) at 8 ppm Septtr (Septoria tritici): 1% | CM2 Growth (%) at 31 ppm Phytin (Phytophthora infestans): 73%

OC1(c2ccc(-c3ccc(F)cc3)cc2)CCCCCC1n1cncn1 (stereo not drawn)
CG1 Disease (%) at 150 ppm Puccrt P1 (Puccinia recondita): 10%

OC1(c2ccc(Cl)cc2)CCCCC1n1cncn1 (stereo not drawn) [reference compound]
CM3 Growth (%) at 8 ppm Septtr (Septoria tritici): 52% | CM2 Growth (%) at 31 ppm Phytin (Phytophthora infestans): 78%

OC1(c2ccc(F)cc2)CCCCC1n1cncn1 (stereo not drawn) [Example No. 28 of EP 0 152 031, reference compound]
CM1 Growth (%) at 8 ppm Botrci (Botrytis cinerea): 40% | CM3 Growth (%) at 8 ppm Septtr (Septoria tritici): 83% | CM2 Growth (%) at 31 ppm Phytin (Phytophthora infestans): 93%

OC1(c2ccc(-c3ccc(Cl)cc3)cc2)CCCCC1n1cncn1 (stereo not drawn) [Compound I-15]
CM1 Growth (%) at 8 ppm Botrci (Botrytis cinerea): 0% | CM3 Growth (%) at 8 ppm Septtr (Septoria tritici): 2%

OC1(c2ccc(Oc3ccc(Cl)cc3)cc2)CCCCC1n1cncn1 (stereo not drawn) [Compound I-11, 1-[4-(4-chlorophenoxyl)phenyl]-2-(1,2,4-triazol-1-yl)cyclohexanol]
CM1 Growth (%) at 8 ppm Botrci (Botrytis cinerea): 0% | CM3 Growth (%) at 8 ppm Septtr (Septoria tritici): 0% | CM2 Growth (%) at 31 ppm Phytin (Phytophthora infestans): 57%

OC1(c2ccccc2)CCCCC1n1cncn1 (stereo not drawn) [Example No. 25 of EP 0 152 031, reference compound]
CM1 Growth (%) at 8 ppm Botrci (Botrytis cinerea): 70% | CM3 Growth (%) at 8 ppm Septtr (Septoria tritici): 80% | CM2 Growth (%) at 31 ppm Phytin (Phytophthora infestans): 94%

OC1(c2ccc(Cl)cc2)CCCCCC1n1cncn1 (stereo not drawn) [reference compound]
CG1 Disease (%) at 150 ppm Puccrt P1 (Puccinia recondita): 30%

OC1(c2ccc(-c3ccccc3)cc2)CCCCC1n1cncn1 (stereo not drawn) [Compound I-12]
CM1 Growth (%) at 8 ppm Botrci (Botrytis cinerea): 0% | CM3 Growth (%) at 8 ppm Septtr (Septoria tritici): 1% | CM2 Growth (%) at 31 ppm Phytin (Phytophthora infestans): 41%
